Seven molecules from US9388133B2, “Pyrrole sulfonamide derivative, preparation method for same, and medical application thereof” (Jiangsu Hansoh Pharmaceutical Co., Ltd., priority 2012, dated 2016) can be followed below.

Structures are written as SMILES. pIC50: −log10 of the molar value.

For assay [1], the target named is T1, H^+/K^+-ATPase (Sus scrofa, UniProt P19156).
T1 construct: Microsomes of porcine gastric mucosal (rich in H^+/K^+-ATPase) obtained by sucrose gradient centrifugation; from tissue; host or cells: porcine gastric mucosa microsomes (self-manufactured, sucrose/ficoll gradient centrifugation)
T1 sequence (P19156 2-1034 limits assumed): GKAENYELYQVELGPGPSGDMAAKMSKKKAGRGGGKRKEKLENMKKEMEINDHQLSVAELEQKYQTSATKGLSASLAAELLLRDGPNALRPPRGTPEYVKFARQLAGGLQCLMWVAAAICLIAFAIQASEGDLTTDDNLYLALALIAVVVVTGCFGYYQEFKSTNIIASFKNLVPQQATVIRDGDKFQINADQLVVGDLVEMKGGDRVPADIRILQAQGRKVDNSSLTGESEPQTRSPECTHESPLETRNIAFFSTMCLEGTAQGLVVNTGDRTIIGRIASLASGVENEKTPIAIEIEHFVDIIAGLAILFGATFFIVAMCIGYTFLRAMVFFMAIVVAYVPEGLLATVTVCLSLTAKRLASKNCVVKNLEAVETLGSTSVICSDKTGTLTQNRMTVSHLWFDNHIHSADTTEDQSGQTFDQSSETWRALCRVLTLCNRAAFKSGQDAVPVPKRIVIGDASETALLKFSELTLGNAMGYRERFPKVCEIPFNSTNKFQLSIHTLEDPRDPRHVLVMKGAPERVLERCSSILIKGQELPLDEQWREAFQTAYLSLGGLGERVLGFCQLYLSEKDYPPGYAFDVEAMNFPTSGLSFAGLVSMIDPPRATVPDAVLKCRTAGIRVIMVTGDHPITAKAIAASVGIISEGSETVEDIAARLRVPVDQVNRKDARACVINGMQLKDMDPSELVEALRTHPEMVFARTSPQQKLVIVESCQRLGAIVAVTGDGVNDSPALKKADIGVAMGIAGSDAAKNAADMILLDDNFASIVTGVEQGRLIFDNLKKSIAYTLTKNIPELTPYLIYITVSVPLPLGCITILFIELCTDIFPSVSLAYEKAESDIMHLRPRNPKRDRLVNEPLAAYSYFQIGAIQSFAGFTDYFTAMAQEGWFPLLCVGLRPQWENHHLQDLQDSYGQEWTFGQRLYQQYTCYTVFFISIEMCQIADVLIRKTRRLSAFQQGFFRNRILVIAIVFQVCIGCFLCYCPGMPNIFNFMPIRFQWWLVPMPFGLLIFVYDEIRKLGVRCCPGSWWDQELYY
T1 sequence (P18434 whole entry partner): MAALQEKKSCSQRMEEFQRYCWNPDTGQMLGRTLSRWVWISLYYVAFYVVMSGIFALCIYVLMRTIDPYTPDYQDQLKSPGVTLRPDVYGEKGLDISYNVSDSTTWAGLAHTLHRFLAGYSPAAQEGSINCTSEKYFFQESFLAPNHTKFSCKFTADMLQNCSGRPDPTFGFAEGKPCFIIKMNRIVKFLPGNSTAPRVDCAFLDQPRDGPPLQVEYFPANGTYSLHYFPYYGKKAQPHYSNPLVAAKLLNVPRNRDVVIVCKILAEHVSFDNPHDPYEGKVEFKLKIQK
As to the kind of experiment: H+/K+-ATPase enzyme activity inhibition (malachite green, microsomes of porcine gastric mucosa). To be noted: pH 6.5, 10 mmol/L KCl, 37° C. 30 min. The format is biochemical. The method, then: The following in-vitro screening test was used for determining the inhibition effect of the compounds of the present invention on enzyme activity of H^+/K^+-ATPase.
1. microsomes of porcine gastric mucosa (rich in H^+/K^+-ATPase) (self-manufactured)
1. The compounds were prepared into appropriate concentrations of 10000, 1000, 100, 10, 1 and 0.1 nM with 100% DMSO;
2. Buffer solution 1: 50 mmol/L of HEPES-Tris, 5 mmol/L of magnesium chloride, pH of 6.5;
3. Buffer solution 2: 50 mmol/L of HEPES-Tris, 5 mmol/L of magnesium chloride, pH of 6.5, 10 mmol/L of potassium chloride, pH=6.5;
4. ATP: ATP was diluted with the buffer solution 1 to 2 mM;
5. Malachite green solution: 0.12% of malachite green was dissolved in 2.5 moles of a mixture of sulfuric acid, 7.5% ammonium molybdate and 11% Tween 20, the three components were mixed according to a ratio of 100:25:2 during the use.
6. Microsomes of porcine gastric mucosal (rich in H^+/K^+-ATPase) obtained by sucrose gradient centrifugation: a porcine stomach was washed with running water, and immersed into 3 mol/L of concentrated brine for 1-2 min, and then wiped dry; the gastric mucosas were separated, minced, then suspended in a solution of 0.25 mol/L of sucrose, 1 mmol/L of EDTA, and 10 mmol/L of Tris-HCl; homogenization treatment was performed (the ratio was 100 g:330 mL, and 300 mL was further added after the completion of full homogenization), and the resulting homogenate was centrifugalized at 20000G for 30 min to remove the precipitate; the supernatant fluid was taken and centrifugalized at 100000G for 90 min; the precipitate was taken and suspended in 0.25 mol/L of sucrose solution, 0.25 mol/L of sucrose, 7.5% of ficoll were added at the bottom and centrifugalized at 100000G for 5 h. The substances between two liquid surface layers were collected, and then washed with 0.25 mol/L of sucrose solution while being shaken, and the resulting microsomal enzymes were kept at −80° C. for preservation and later use.
10 μL of microsomes of gastric mucosa (H^+/K^+-ATPase) were added to 79 μL of the buffer solution 2, followed by addition of 1 μL of the compound solutions with various concentrations, and then 10 μL of 2 mM ATP were added to start the reaction. It was reacted at 37° C. for 30 min. 30 μL of malachite green solution was added to terminate the reaction, and the reaction solution was kept at room temperature for 20 min, and then an OD value was read at 620 nm on a Victor3 microplate reader, and the inhibition rates of the compounds at various concentrations against H^+/K^+-ATPase were calculated.
Simultaneously, the reaction without addition of potassium chloride was taken as a background, which was subtracted when enzyme activity was calculated.
IC50 values can be calculated from the inhibition rates of the test compounds at various concentrations.

Assay [2] concerns gastric acid secretion of rats with pyloric ligation induced ulcer. Nature of the assay: Inhibition of gastric acid secretion of rats with pyloric ligation induced ulcer, histamine-stimulated, 24 h after administration (Test Example 3). The format is in vivo, rat. The note with it: SD male rats, acid output within 3 h of histamine. The protocol:
A rat gastric ulcer model, in which rat gastric acid secretion was promoted by pyloric ligation and histamine hydrochloride, was established in the following experiment, for evaluating the effect of the test compounds on inhibition of the gastric acid secretion.
Twenty-four (24) 7-week-old SD male rats with a weight of about 250 g were purchased form Sippr-BK (batch number: 2008001621913). The rats were fed by 4 rats/cage, 12/12 h light/dark cyclic regulation was performed, the temperature was constant at 23±1° C., the humidity was 50-60%, and the rats took food and water freely.
The compound of Example 1 was prepared into a solution/suspension with 0.5% of CMC-Na.
The rats were fasted for about 24 h. 4 mg/kg and 8 mg/kg of the compound of Example 1 or 0.5% of CMC-Na were administrated intragastrically (i. g) to the rats, and then 1.2 g/kg of urethane was injected intraperitoneally within 24 h. […] After centrifugalizing at 4000 rpm for 10 min, the supernatant fluid was sucked up, and the volume of each sample was measured accurately. […]
(§1) Gastric acid titration: the mean value (mean±S.D.) was calculated in each group by Excel software, t test was performed on the total acid value of gastric acid from treatment groups and model group subjects/animals at each time point after drug administration to judge whether a significant difference existed or not. […]

Assay [3] shares this test system. Nature of the assay: Inhibition of gastric acid secretion of rats with pyloric ligation induced ulcer, histamine-stimulated, 1 h after administration (Test Example 2). The note with it: SD male rats, 2 mg/kg i.g., acid output within 3 h of histamine. It is filed as in vivo, rat. The protocol:
A rat gastric ulcer model, in which rat gastric acid secretion was promoted by pyloric ligation and histamine hydrochloride, was established in the following experiment, for evaluating the effect of the test compounds on inhibition of gastric acid secretion.
Sixteen 7-week-old Sprague-Dawley (SD) male rats with a weight of about 250 g were purchased form Sippr-BK (batch number: 2008001621913). The rats were fed by 4 rats/cage, 12/12 h light/dark cyclic regulation was performed, the temperature was constant at 23±1° C., the humidity was 50-60%, and the rats took food and water freely.
The compound of Example 1, which was prepared into a solution/suspension with 0.5% of sodium carboxymethylcellulose (CMC-Na).
The rats were fasted for about 4 h. 2 mg/kg of the compound of Example 1 or 0.5% of CMC-Na were administrated intragastrically (i. g.) to the rats, and then 1.2 g/kg of urethane was injected intraperitoneally within 1 h. […] After centrifugalizing at 4000 rpm for 5 min, the supernatant fluid was sucked up, and the volume of each sample was measured accurately. […]
as §1

Broadly, the pIC50 is the negative decadic logarithm of the IC50, by convention in mol/L. Regarding `CNCc1cc(-c2ccccc2F)n(S(=O)(=O)c2ccc(OCC3(C(=O)NC)CC3)cc2)c1` [Example 6, 1-((4-((2-(2-fluorophenyl)-4-((methylamino)methyl)-1H-pyrrol-1-yl)sulfonyl)phenoxy)methyl)-N-methylcyclopropylcarboxamide], the pIC50 in assay [1] is 6.97.

In the case of `CNCc1cc(C2=CCCCC2)n(S(=O)(=O)c2cccc(OCC(=O)NC3CC3)c2)c1` [Example 7, 2-(3-((2-(cyclohex-1-en-1-yl)-4-((methylamino)methyl)-1H-pyrrol-1-yl)sulfonyl)phenoxy)-N-cyclopropylacetamide], the pIC50 in assay [1] was 7.02.

On to `CNCc1cc(-c2ccccc2F)n(S(=O)(=O)c2cccc(OCC(=O)NCCCO)c2)c1` [Example 11], for which the pIC50 in assay [1] was 7.21.

`CNCc1cc(-c2ccccc2F)n(S(=O)(=O)c2ccc(OCC(=O)NC)cc2)c1` [Example 4, 2-(4-((2-(2-fluorophenyl)-4-((methylamino)methyl)-1H-pyrrol-1-yl)sulfonyl)phenoxy)-N-methylacetamide]: in assay [1], the negative-log IC50 (pIC50) was 7.20.

Take `CNCc1cc(-c2ccccc2F)n(S(=O)(=O)c2cccc(OCC(=O)NC)c2)c1` [Example 1, 2-(3-((2-(2-fluorophenyl)-4-((methylamino)methyl)-1H-pyrrol-1-yl)sulfonyl)phenoxy)-N-methylacetamide]: the “acid inhibition rate at 24 h” value in assay [2] (4 mg/kg i.g.) was 89.6%; in assay [2] (8 mg/kg i.g.), 99.4%. Besides, the pIC50 in assay [1] is 7.68. Further, in assay [3], the “acid inhibition rate at 1 h” value is listed as 89.3%.

On to `CNCc1cc(-c2ccccc2F)n(S(=O)(=O)c2cccc(OCC3(C(=O)NC)CC3)c2)c1` [Example 5, 1-((3-((2-(2-fluorophenyl)-4-((methylamino)methyl)-1H-pyrrol-1-yl)sulfonyl)phenoxy)methyl)-N-methylcyclopropylcarboxamide], for which the negative-log IC50 (pIC50) in assay [1] was 7.09.

Regarding `CNCc1cc(-c2ccccc2F)n(S(=O)(=O)c2cccc(OCC(=O)NCCO)c2)c1` [Example 10, 2-(3-((2-(2-fluorophenyl)-4-((methylamino)methyl)-1H-pyrrol-1-yl)sulfonyl)phenoxy)-N-(2-hydroxyethyl)acetamide], the negative-log IC50 (pIC50) in assay [1] was 7.31.
